Active and inactive are the calls of the source. No cut-off for these calls is given here.
Legend:
CCRF-CEM [1] = assay: Growth inhibition of human CEM cells after 24 hrs by trypan blue staining; type: functional, cell-based
CCRF-CEM [2] = assay: Growth inhibition of human CEM cells incubated in presence of light after 24 hrs by trypan blue staining; type: functional, cell-based

SMILES: C/C=C(C)/C=C/C[C@H](C)CCC=C(C)C [CAPARRATRIENE]
- IC50 (CCRF-CEM [1]): 3000 nM
- Activity (CCRF-CEM [2]): Active

From ChEMBL document CHEMBL1151669, “Caparratriene, an active sesquiterpene hydrocarbon from Ocotea caparrapi” (J Nat Prod, 1996)
